Reference: US20130053372A1, “5-HT RECEPTOR MODULATORS” (Cambridge Enterprise Limited, priority 2010, published 2013)
Where a name gives a salt, the structure may show the parent alone.

Columns and labels:
[1] = system: chronically hypoxic murine model of pulmonary arterial hypertension (PAH); assay: Effect on development of hypoxia-induced pulmonary hypertension (haemodynamics, right ventricular hypertrophy); type: in vivo, Mice (C57B/6J); conditions: mice
Description: Protocol for the Determination of the Effect on the Development of Hypoxia-Induced Pulmonary Hypertension.
Mice (C57B/6J, male, 2 months) were exposed to 14 days of hypobaric hypoxia (equivalent to 10% O2) or normoxia, as described in MacLean, M. R. et al. Circulation 2008, 117, 2928-2937 and MacLean, M. R. et al. Circulation 2004,109, 2150-2155. Mice were dosed either with vehicle (dH2O) or 82 (15 mg/kg/day) for 14 days. Haemodynamic Measurements: Heart rate, right ventricular pressure and systemic arterial pressure were measured and analysed as described in MacLean, M. R. et al. Circulation 2008, 117, 2928-2937 and MacLean, M. R. et al. Circulation 2004,109, 2150-2155. Briefly, right ventricular pressure was measured via transdiaphragmatic right heart catheterisation and systemic arterial pressure was measured via cannulation of the left common carotid artery. Lung Histology: Sagittal sections of lung were elastica-Van Gieson stained and microscopically assessed for the muscularisation of pulmonary arteries (<80 μm external diameter) in a blinded fashion as described in MacLean, M. R. et al. Circulation 2008, 117, 2928-2937 and MacLean, M. R. et al. Circulation 2004,109, 2150-2155. Remodelled arteries were confirmed by the presence of a double elastic laminae.
(§1) Lung sections from 5 mice for each group were studied. Approximately 150 arteries from each lung section (˜750 arteries in total for each group) were assessed. Right Ventricular Hypertrophy: Right ventricular hypertrophy (RVH) was assessed by weight measurement of the right ventricular free wall (RV) and left ventricle plus septum (LV+S). The ratio expressed is RV/LV+S. RVH measurements from 6 to 8 mice for each group were assessed. Myography: Small pulmonary arteries (PAs) of ˜350 μm internal diameter (i.d.) were set up on wire myographs as described in MacLean M. R. et al. J Pharmacol Exp Ther. 2005, 313, 539-548. Briefly, PAs from normoxic mice were set up at tensions equivalent to their mean in vivo right ventricular pressure (RVP) (12-15 mmHg), whereas PAs from hypoxic mice were set up at tensions equivalent to the elevated in vivo mean pressures observed after exposure to hypoxia (25-30 mmHg). After a 45-min equilibration period, the response to 50 mM KCl was determined. Cumulative response curves were constructed in the presence and absence of the antagonist which was allowed a 45-min equilibrium period before constructing the curves.
The effects of 82 on a chronically hypoxic murine model of pulmonary arterial hypertension (PAH) were assessed. Four small groups of n=3 or 4 were used. The results are illustrated in FIGS. 13-17 (see also description of figures, above).

[2] = system: intralobar pulmonary arteries from hypoxic mice; assay: Myography of pulmonary arteries: vasoreactivity to 5-HT; design: species or system Mice (C57B/6J); conditions: 15 mg/kg/day
Description: as §1

rat r5-HT1B receptors = target: T1, rat r5-HT1B receptors (Rattus norvegicus, UniProt P28564); assay: Binding affinity at rat r5-HT1B receptors, rat cerebral cortex membrane binding (RBA); conditions: value in parentheses; monohydrochloride salt
T1 construct: from tissue
Description: Binding Protocol for Determination of Affinity at rat r5-HT 1B Receptors (RBA)
This binding affinity protocol was performed according to standard conditions disclosed in Eur. J. Pharmacol. 1985, 118, 1-12.

T1 sequence (P28564 whole entry): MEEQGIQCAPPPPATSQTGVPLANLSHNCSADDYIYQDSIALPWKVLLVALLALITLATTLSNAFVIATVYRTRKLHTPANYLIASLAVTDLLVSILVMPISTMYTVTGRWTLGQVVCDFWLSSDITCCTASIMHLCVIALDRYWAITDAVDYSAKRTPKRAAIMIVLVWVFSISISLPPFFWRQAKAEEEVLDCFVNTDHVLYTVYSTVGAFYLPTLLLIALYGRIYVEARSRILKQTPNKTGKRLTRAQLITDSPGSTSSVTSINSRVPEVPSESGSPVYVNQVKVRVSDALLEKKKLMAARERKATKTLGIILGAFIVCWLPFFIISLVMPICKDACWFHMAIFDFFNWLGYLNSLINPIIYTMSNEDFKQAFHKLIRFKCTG

SMILES: CN1CCN(c2nc(N3CCN(c4ccccc4)C3=O)cc3ccoc23)CC1 [Example 82, 1-(7-(4-Methylpiperazin-1-yl)furo[2,3-c]pyridin-5-yl)-3-phenylimidazolidin-2-one hydrochloride]
- effect on heart rate (HR) ([1]; 15 mg/kg/day): no significant effect
- effect on mean systemic arterial pressure (mSAP) ([1]; 15 mg/kg/day): no significant effect
- hypoxia-induced increases in systolic right ventricular pressure (sRVP) ([1]; 15 mg/kg/day for 14 days, hypobaric hypoxia): significantly attenuated
- hypoxia-induced right ventricular hypertrophy (RVH) ([1]; 15 mg/kg/day for 14 days, hypobaric hypoxia, RV/LV+S): significantly attenuated
- effect on the increase in contractility to 5HT in intralobar pulmonary arteries from hypoxic mice [2]: no effect
- IC50 (rat r5-HT1B receptors): 110 nM
